The source of these data is US7173035B2, “Arylsulfonamide compounds” (Biovitrum AB, priority 2001, dated 2007).

Structures can show the parent of a compound that is named as a salt.

The subject of data set [1] is Obese (ob/ob) mouse. Kind of data set: In vivo assay of reduction of food intake.

On to `Cl.O=S(=O)(Nc1ccc(N2CCCNCC2)cc1NS(=O)(=O)c1ccccc1)c1ccccc1` [Example 27, N-{4-(homopiperazinyl)-2-[(phenylsulfonyl)amino]phenyl}benzenesulfonamide hydrochloride], for which, in data set [1] (Dose 50 mg/Kg), the “Reduction of Food Intake (%) po administration” value amounted to 28%. `CCN(c1cc(N2CCCNCC2)ccc1NS(=O)(=O)c1ccccc1)S(=O)(=O)c1ccccc1.Cl` [Example 29, N-{4-(1,4-diazepan-1-yl)-2-[ethyl(phenylsulfonyl)amino]phenyl}benzenesulfonamide hydrochloride]: in data set [1] (Dose 100 mg/Kg), the “Reduction of Food Intake (%) po administration” value was 60%. One may read the melting point as the temperature, or range, at which the solid turns liquid. For `CN1CCCN(c2ccc(S(=O)(=O)Nc3ccccc3)cc2N)CC1` (as salt: hydrochloride) [Example 92, 3-Amino-4-(4-methyl-1,4-diazepan-1-yl)-N-phenylbenzenesulfonamide], the melting point was 84 to 85 °C.
